Assay results as given in ChEMBL document CHEMBL1201862, “PubChem BioAssay data set” (2004).
Where “and” joins values, the source holds several entries; their conditions need not be identical. Equal values may be shown once.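 All cell lines were grown in 96-well plates and treated with compound for 48 hours. Abbreviation: GI50, concentration required for 50% inhibition of growth.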 Calls of active or inactive are those of the source. Rule as the data show it: active = GI50 up to about 1.1 µM and inactive = higher.

Assays:
Experiment in all cases: inhibition of tumour cell growth, NCI panel, 48 h
[1] = system: DMS-273
[2] = system: MDA-N
[3] = system: T47D
[4] = system: SW-620
[5] = system: SF-539
[6] = system: U-251
[7] = system: HL-60
[8] = system: KM12
[9] = system: MCF7
[10] = system: A498
[11] = system: CAKI-1
[12] = system: K562
[13] = system: KM-20L2
[14] = system: DU-145
[15] = system: SR
[16] = system: LOX IMVI
[17] = system: HCC 2998
[18] = system: OVCAR-5
[19] = system: 786-0
[20] = system: SK-MEL-2

| Compound | GI50 [1] | GI50 [2] | GI50 [3] | GI50 [4] | GI50 [5] | GI50 [6] | GI50 [7] | GI50 [8] | GI50 [9] | GI50 [10] | GI50 [11] | GI50 [12] | GI50 [13] | GI50 [14] | GI50 [15] | GI50 [16] | GI50 [17] | GI50 [18] | GI50 [19] | GI50 [20] |
| --- | --- | --- | --- | --- | --- | --- | --- | --- | --- | --- | --- | --- | --- | --- | --- | --- | --- | --- | --- | --- |
| CC#CC#C/C=C1\C=CC2(OC=CC2OC(C)=O)O1 (centres undefined) | 20.1 µM (inactive) | 15.8 µM (inactive) | 24.1 µM (inactive) | 24.8 µM (inactive) and 18.8 µM (inactive) | 25.5 µM (inactive) and 20.7 µM (inactive) | 19.5 µM (inactive) and 18.5 µM (inactive) | 20.2 µM (inactive) and 10.4 µM (inactive) | 21.7 µM (inactive) and 21.8 µM (inactive) | 14.4 µM (inactive) | 47.6 µM (inactive) and 80.9 µM (inactive) | 15.2 µM (inactive) and > 10 µM (inactive) | 25.6 µM (inactive) and 19 µM (inactive) | 3.51 µM (inactive) | 20.4 µM (inactive) | 17.6 µM (inactive) and 15.3 µM (inactive) | 30.1 µM (inactive) and 16.1 µM (inactive) | 22 µM (inactive) and 28 µM (inactive) |  |  |  |
| COC1CC(C)C(OC)c2cc(O)cc(c2O)NC(=O)/C(C)=C/C=C\C(C)C(OC(N)=O)/C(C)=C\C(C)C1OC (centres undefined) | 0.225 µM (active) | 0.144 µM (active) | 0.266 µM (active) | 82 nM (active) | 417 nM (active) | 497 nM (active) |  | 255 nM (active) | 0.125 µM (active) | 3.49 µM (inactive) |  |  | 0.188 µM (active) | 0.231 µM (active) | 39.6 nM (active) | 471 nM (active) | 951 nM (active) | 1.47 µM (inactive) | 2.03 µM (inactive) | 1.69 µM (inactive) |
| Cc1cc(N(CCC#N)CCC#N)ccc1/C=C(\NC(=O)/C=C/c1ccccc1)C(=O)NN | > 100 µM (inactive) | > 100 µM (inactive) | 55 µM (inactive) | > 100000 nM (inactive) | 39100 nM (inactive) | 26000 nM (inactive) | > 100 µM (inactive) | > 100000 nM (inactive) | 95.1 µM (inactive) | > 100 µM (inactive) | > 100 µM (inactive) | > 100 µM (inactive) | > 100 µM (inactive) | > 100 µM (inactive) | > 100000 nM (inactive) | > 100000 nM (inactive) | > 100000 nM (inactive) | > 100 µM (inactive) | 30.6 µM (inactive) | > 61.7 µM (inactive) |
